Laboratory results from PubChem BioAssay AID328 (DTP/NCI, 2004).
Where “and” joins values, the source holds several entries; their conditions need not be identical. Equal entries are not always repeated. Toxic doses and inconclusive results are not listed.

Tested on: BDF1 mice, P388 leukemia ip, median survival T/C
Assay: NCI In Vivo Anticancer Drug Screen. Data for tumor model P388 Leukemia (intraperitoneal) in B6D2F1 (BDF1) mice
Settings: endpoint: median survival time, higher = longer survival
How it was run: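 In tumour-bearing mice, survival after compound treatment is set against the vehicle group and given as a quotient.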

[1] = dose: 25.0 mg/kg/injection, schedule: Q01DX009 (ip), vehicle: saline
[2] = dose: 50.0 mg/kg/injection, schedule: Q01DX009 (ip), vehicle: saline
[3] = dose: 100.0 mg/kg/injection, schedule: Q01DX009 (ip), vehicle: saline

CCCCCCCCCCCCCCCC[N+]1(CC)CCCC1
T/C (dose: 0.19 mg/kg/injection, schedule: Q01DX009 (ip), vehicle: saline): 120 % of control
T/C (dose: 0.39 mg/kg/injection, schedule: Q01DX009 (ip), vehicle: saline): 104 % of control

CNC(=S)N/N=C(/C)CCC/C(C)=N/NC(=S)NC
T/C (dose: 6.25 mg/kg/injection, schedule: Q01DX009 (ip), vehicle: saline with Tween-80): 106 % of control
T/C (dose: 12.5 mg/kg/injection, schedule: Q01DX009 (ip), vehicle: saline with Tween-80): 108 % of control
T/C (dose: 25.0 mg/kg/injection, schedule: Q01DX009 (ip), vehicle: saline with Tween-80): 99 % of control

[O-]/C(CCl)=N\[n+]1c2c(nc3ccccc31)-c1cccc3cccc-2c13
T/C (dose: 12.5 mg/kg/injection, schedule: Q01DX001 (ip), vehicle: Klucel (hydroxypropylcellulose) (HPC)): 105 % of control
T/C (dose: 25.0 mg/kg/injection, schedule: Q01DX001 (ip), vehicle: Klucel (hydroxypropylcellulose) (HPC)): 102 % of control

COc1ccc(CN(C(C)=O)c2cc(C)c([N+](=O)[O-])cc2OC)cc1OC
T/C [1]: 103 % of control
T/C (dose: 25.0 mg/kg/injection, schedule: Q04DX003 (ip), vehicle: saline): 87 % of control and 107 % of control
T/C [2]: 87 % of control
T/C (dose: 50.0 mg/kg/injection, schedule: Q04DX003 (ip), vehicle: saline): 88 % of control and 107 % of control
T/C [3]: 111 % of control
T/C (dose: 150.0 mg/kg/injection, schedule: Q04DX003 (ip), vehicle: saline): 106 % of control
T/C (dose: 200.0 mg/kg/injection, schedule: Q01DX009 (ip), vehicle: saline): 108 % of control
T/C (dose: 200.0 mg/kg/injection, schedule: Q04DX003 (ip), vehicle: saline): 99 % of control and 107 % of control
T/C (dose: 300.0 mg/kg/injection, schedule: Q04DX003 (ip), vehicle: saline): 114 % of control
T/C (dose: 400.0 mg/kg/injection, schedule: Q01DX009 (ip), vehicle: saline): 100 % of control
T/C (dose: 400.0 mg/kg/injection, schedule: Q04DX003 (ip), vehicle: saline): 100 % of control

C=C(C)C1CCC2=CC(CC3(C)OC3C3=CC(C(=O)OC)=C(C1)O3)OC2=O (centres undefined)
T/C (dose: 50.0 mg/kg/injection, schedule: Q01DX009 (ip), vehicle: Klucel (hydroxypropylcellulose) (HPC)): 86 % of control

OC(c1ccc(Cl)cc1)C1CCNCC1 (centres undefined)
T/C [2]: 90 % of control
T/C [3]: 102 % of control

Oc1ccccc1C=NC1CCCCC1.Oc1ccccc1C=NC1CCCCC1.[Ni+2]
T/C (dose: 50.0 mg/kg/injection, schedule: Q04DX003 (ip), vehicle: saline sonified): 109 % of control
T/C (dose: 100.0 mg/kg/injection, schedule: Q04DX003 (ip), vehicle: saline sonified): 109 % of control
T/C (dose: 200.0 mg/kg/injection, schedule: Q04DX003 (ip), vehicle: saline sonified): 100 % of control

O=C(CN1CCCCC1)c1ccc2c(c1)Cc1cc(C(=O)CN3CCCCC3)ccc1O2
T/C (dose: 50.0 mg/kg/injection, schedule: Q01DX009 (ip), vehicle: saline with Tween-80): 98 % of control
T/C (dose: 100.0 mg/kg/injection, schedule: Q01DX009 (ip), vehicle: saline with Tween-80): 90 % of control

CC[C@@]1(O)C[C@H](OC2CC(N(C)C)C(OC3CC(O)C(OC4CC(O)C(O)C(C)O4)C(C)O3)C(C)O2)c2c(cc3c(c2O)C(=O)c2c(O)ccc(O)c2C3=O)[C@H]1C(=O)OC (some centres undefined)
T/C (dose: 1.08 mg/kg/injection, schedule: Q04DX003 (ip), vehicle: water): 185 % of control
T/C (dose: 1.8 mg/kg/injection, schedule: Q04DX003 (ip), vehicle: water): 194 % of control
T/C (dose: 1.9 mg/kg/injection, schedule: Q01DX001 (ip), vehicle: other): 169 % of control
T/C (dose: 3.8 mg/kg/injection, schedule: Q01DX001 (ip), vehicle: other): 196 % of control
T/C (dose: 5.0 mg/kg/injection, schedule: Q04DX003 (ip), vehicle: water): 101 % of control
T/C (dose: 7.5 mg/kg/injection, schedule: Q01DX001 (ip), vehicle: other): 198 % of control

O=[Se](=O)(c1ccccc1)c1ccccc1
T/C (dose: 100.0 mg/kg/injection, schedule: Q04DX002 (ip), vehicle: saline with Tween-80): 97 % of control
T/C (dose: 200.0 mg/kg/injection, schedule: Q04DX002 (ip), vehicle: saline with Tween-80): 103 % of control
T/C (dose: 400.0 mg/kg/injection, schedule: Q04DX002 (ip), vehicle: saline with Tween-80): 94 % of control

COc1cc(NCCCCCCCNC(C)C)c2nccc(C)c2c1
T/C (dose: 3.13 mg/kg/injection, schedule: Q01DX009 (ip), vehicle: saline): 105 % of control
T/C (dose: 6.25 mg/kg/injection, schedule: Q01DX009 (ip), vehicle: saline): 98 % of control and 115 % of control
T/C [1]: 109 % of control and 116 % of control

O=[N+]([O-])c1ccc(S(=O)c2ccccc2)c2c1no[n+]2[O-] (centres undefined)
T/C (dose: 22.5 mg/kg/injection, schedule: Q01DX009 (ip), vehicle: saline with Tween-80): 92 % of control
T/C (dose: 45.0 mg/kg/injection, schedule: Q01DX009 (ip), vehicle: saline with Tween-80): 93 % of control

N#[N+]c1cnc([O-])[nH]c1=O
T/C (dose: 1.25 mg/kg/injection, schedule: Q01DX010 (ip), vehicle: saline): 175 % of control
T/C (dose: 2.5 mg/kg/injection, schedule: Q01DX010 (ip), vehicle: saline): 185 % of control
T/C (dose: 5.0 mg/kg/injection, schedule: Q01DX010 (ip), vehicle: saline): 172 % of control and 210 % of control
T/C (dose: 10.0 mg/kg/injection, schedule: Q01DX010 (ip), vehicle: saline): 240 % of control and 177 % of control
